Among the data in US9649314B2, “Pyrimido[4,5-b]quinoline-4,5(3H,10H)-diones” (NOVARTIS AG, priority 2012, dated 2017) are Emax and AC50 values, retold here.

In this experiment the test system is CFTR-Y122X. As to the kind of experiment: CFTR-Y122X assay (dual reporter isogenic Hek293 cell lines, Renilla luminescence readthrough). The experiment is classed as cell-based. Conditions: Homo sapiens, HEK293; for Emax / AC50: nonsense mutation suppression, 24 h incubation; for Emax: 100% = 14 mM paromomycin, tested up to 100 μM, read-out: Amax [%]. From the text:
Activity of compounds of the present invention was examined in recombinant, dual reporter isogenic Hek293 cell lines (“CFTR-Y122X assay”). The engineered reporter constructs contained the 18 bp sequence stretch corresponding to a common Y122X PTC mutation in CFTR class I mutant patients (see Sermet-Gaudelus, BMC Medicine, 2007, 5(5)). Instead of a tyrosine (Y) in position 122 of the CFTR protein a TGA stop codon interrupts the open reading frame (Y122X) of the corresponding mRNA. This TGA stop codon triplet (followed by the pyrimidine base cytosine) is permissive to aminoglycoside mediated translational readthrough which served as positive control for high throughput screening. A corresponding TAA stop codon variant and a wildtype non mutated construct was used for confirmation and counter screening. The CFTR sequence was sandwiched between an eGFP reporter, and a triple myc tag sequence fused to a full length Renilla reporter. All sequences, including an intron containing one positioned pre-eGFP (b-globin intron) were cloned in frame. The corresponding expression constructs were stably expressed in the isogenic HEK-R4 cell host (Invitrogen Incorp.) and selected by blasticidin resistance. The isogenic integration of the construct minimizes gene dose effects and improves assay reproducibility. Stably integrated single cell derived clones were selected and characterized for aminoglycoside mediated readthrough. […] Readthrough of Y122X accumulates an intracellular localized fusion protein approximately 65.5 kDa in size as controlled by western blot analysis and immunofluorescence using an anti-renilla antibody. The eGFP reporter pre-PTC mutation serves as visual control for genetic stability of the screening clones and minimizes protein degradation of small fusion protein amounts. In the assay, compound concentration was 10 μM. In miniaturized 1536 well format 2000 cells were dispensed in 4 μl/well and incubated for 24 h at 37° C., 5% CO2. 40 nl compounds were placed on the cells with control wells containing 1 ul Paramomycin and 14.4 mM final concentration. Compounds were incubated for 24 h. Renilla Glo substrate (2.5 ul) was added and plates were centrifuged and processed for luminescence measurement using various readers. Activity calculation was done using the equation: A1 (%)=100*(S−NC)/(AC−NC) where AC, NC and S correspond to active controls (injection of Stimulation buffer=100% stimulation), neutral controls (buffer injection which Iloprost EC10) and screening samples (S). NC corresponds to 0% activity whereas AC is 100% activity (14 mM paromomycin). False positive artefacts were removed in confirmation and validation screening using the same assay format followed by counterscreening using the respective wildtype construct (w/o PTC mutation) cell model. Compounds were tested up to 100 μM compound concentration.

Each structure is given as a SMILES string.

`COCCCCc1nc2c(c(=O)c3ccccc3n2C)c(=O)n1-c1ccccc1` [Example 1.14, 2-(4-methoxybutyl)-10-methyl-3-phenylpyrimido[4,5-b]quinoline-4,5(3H,10H)-dione]: the Emax was 18%. Turning to `CC(C)c1nc2c(c(=O)c3ccccc3n2C)c(=O)n1-c1ccccc1F` [Example 1.15, 3-(2-fluorophenyl)-2-isopropyl-10-methylpyrimido[4,5-b]quinoline-4,5(3H,10H)-dione], the Emax amounted to 169% and the activity was half-maximal at 7.8 µM (AC50). The like results for `CC(C)c1nc2c(c(=O)c3ccccc3n2C)c(=O)n1-c1ccccc1Cl` [Example 1.16, 3-(2-chlorophenyl)-2-isopropyl-10-methylpyrimido[4,5-b]quinoline-4,5(3H,10H)-dione] were, in that order, 200% and 9.3 µM. For `CC(C)c1nc2c(c(=O)c3ccccc3n2C)c(=O)n1-c1c(Cl)cccc1Cl` [Example 1.17, 3-(2,6-dichlorophenyl)-2-isopropyl-10-methylpyrimido[4,5-b]quinoline-4,5(3H,10H)-dione] the same measures were 230% and 8.8 µM. `Cc1ccccc1-n1c(C(C)C)nc2c(c(=O)c3ccccc3n2C)c1=O` [Example 1.18, 2-isopropyl-10-methyl-3-(o-tolyl)pyrimido[4,5-b]quinoline-4,5(3H,10H)-dione]: the Emax worked out at 248% and the AC50 (commonly the concentration giving half of the maximal activity seen) was 6.9 µM. `COc1ccccc1-n1c(C(C)C)nc2c(c(=O)c3ccccc3n2C)c1=O` [Example 1.19, 2-isopropyl-3-(2-methoxyphenyl)-10-methylpyrimido[4,5-b]quinoline-4,5(3H,10H)-dione]: the Emax at 12.5 µM (measured at 12.5 μM compound concentration (footnote b), read-out: Amax [%]: % nonsense mutation suppression relative to paromomycin reference activity) was 16%.

`CC(C)c1nc2c(c(=O)c3ccccc3n2C)c(=O)n1-c1ccccc1C(F)(F)F` [Example 1.20, 2-isopropyl-10-methyl-3-(2-(trifluoromethyl)phenyl)pyrimido[4,5-b]quinoline-4,5(3H,10H)-dione]: the Emax was found to be 65% and the AC50 came to 13.8 µM. For `CC(C)c1nc2c(c(=O)c3ccccc3n2C)c(=O)n1-c1cccc(Cl)c1` [Example 1.21, 3-(3-chlorophenyl)-2-isopropyl-10-methylpyrimido[4,5-b]quinoline-4,5(3H,10H)-dione] the same measures were 167% and 10.2 µM.

Take `COc1cccc(-n2c(C(C)C)nc3c(c(=O)c4ccccc4n3C)c2=O)c1` [Example 1.22, 2-isopropyl-3-(3-methoxyphenyl)-10-methylpyrimido[4,5-b]quinoline-4,5(3H,10H)-dione]: the Emax was found to be 23% and the concentration at half-maximal activity (AC50) was 1.9 µM. The like results for `CC(C)c1nc2c(c(=O)c3cc(F)ccc3n2C)c(=O)n1-c1ccccc1` [Example 1.23, 7-fluoro-2-isopropyl-10-methyl-3-phenylpyrimido[4,5-b]quinoline-4,5(3H,10H)-dione] were, in that order, 139% and 13.4 µM. The like results for `CC(C)c1nc2c(c(=O)c3cc(Cl)ccc3n2C)c(=O)n1-c1ccccc1` [Example 1.24, 7-chloro-2-isopropyl-10-methyl-3-phenylpyrimido[4,5-b]quinoline-4,5(3H,10H)-dione] were, in that order, 140% and 11.5 µM. For `CC(C)c1nc2c(c(=O)c3cc(Br)ccc3n2C)c(=O)n1-c1ccccc1` [Example 1.25, 7-bromo-2-isopropyl-10-methyl-3-phenylpyrimido[4,5-b]quinoline-4,5(3H,10H)-dione] the same measures were 68% and 19.5 µM. With `Cc1ccc2c(c1)c(=O)c1c(=O)n(-c3ccccc3)c(C(C)C)nc1n2C` [Example 1.26, 2-isopropyl-7,10-dimethyl-3-phenylpyrimido[4,5-b]quinoline-4,5(3H,10H)-dione], the Emax came out at 254% and the AC50 turned out to be 9.6 µM. For `CC(C)c1nc2c(c(=O)c3cccc4c3n2CC4)c(=O)n1-c1ccccc1` [Example 1.27, 9-isopropyl-8-phenyl-1H-pyrimido[4,5-b]pyrrolo[3,2,1-ij]quinoline-6,7(2H,8H)-dione] the same measures were 271% and 6.8 µM. Consider `CC(C)c1nc2c(c(=O)c3ccccc3n2C)c(=O)n1-c1ccccc1` [Example 1.28, 2-isopropyl-10-methyl-3-phenylpyrimido[4,5-b]quinoline-4,5(3H,10H)-dione], for which the Emax came to 361% and the AC50 amounted to 7.6 µM. Regarding `CCCCCc1nc2c(c(=O)c3ccccc3n2C)c(=O)n1-c1ccccc1` [Example 1.29, 10-methyl-2-pentyl-3-phenylpyrimido[4,5-b]quinoline-4,5(3H,10H)-dione], the Emax was 336% and the AC50 came out at 7.1 µM. The like results for `CCCc1nc2c(c(=O)c3ccccc3n2C)c(=O)n1-c1ccccc1` [Example 1.30, 10-methyl-3-phenyl-2-propylpyrimido[4,5-b]quinoline-4,5(3H,10H)-dione] were, in that order, 262% and 6.5 µM. Regarding `CCc1nc2c(c(=O)c3ccccc3n2C)c(=O)n1-c1ccccc1` [Example 1.31, 2-ethyl-10-methyl-3-phenylpyrimido[4,5-b]quinoline-4,5(3H,10H)-dione], the Emax worked out at 177% and the AC50 amounted to 10.6 µM.

Take `Cn1c2ccccc2c(=O)c2c(=O)n(-c3ccccc3)c(C3CCCCC3)nc21` [Example 1.32, 2-cyclohexyl-10-methyl-3-phenylpyrimido[4,5-b]quinoline-4,5(3H,10H)-dione]: the Emax worked out at 38%. On to `CCc1nc2c(c(=O)c3ccccc3n2C)c(=O)n1-c1cc(C)cc(C)c1` [Example 1.33, 3-(3,5-dimethylphenyl)-2-ethyl-10-methylpyrimido[4,5-b]quinoline-4,5(3H,10H)-dione], for which the Emax came to 16% and the AC50 came out at 0.7 µM. As to `CCCCCc1nc2c(c(=O)c3ccccc3n2C)c(=O)n1-c1cc(C)cc(C)c1` [Example 1.34, 3-(3,5-dimethylphenyl)-10-methyl-2-pentylpyrimido[4,5-b]quinoline-4,5(3H,10H)-dione], the Emax is 16% and the AC50 was 3.2 µM. For `Cc1cc(C)cc(-n2c(C(C)C)nc3c(c(=O)c4ccccc4n3C)c2=O)c1` [Example 1.35, 3-(3,5-dimethylphenyl)-2-isopropyl-10-methylpyrimido[4,5-b]quinoline-4,5(3H,10H)-dione] the same measures were 13% and 1.5 µM. For `CCCc1nc2c(c(=O)c3ccccc3n2C)c(=O)n1-c1cc(C)cc(C)c1` [Example 1.36, 3-(3,5-dimethylphenyl)-10-methyl-2-propylpyrimido[4,5-b]quinoline-4,5(3H,10H)-dione] the same measures were 9% and 1 µM.

For `NCCn1c2ccccc2c(=O)c2c(=O)n(-c3ccccc3)c(C3CCC3)nc21` [Example 1.37, 10-(2-aminoethyl)-2-cyclobutyl-3-phenylpyrimido[4,5-b]quinoline-4,5(3H,10H)-dione], the Emax amounted to 348% and the AC50 was determined as 0.9 µM. `CC(C)c1ccccc1-n1c(C(C)C)nc2c(c(=O)c3ccccc3n2C)c1=O` [Example 1.38, 2-isopropyl-3-(2-isopropylphenyl)-10-methylpyrimido[4,5-b]quinoline-4,5(3H,10H)-dione]: the Emax was 15%. As to `O=c1c2ccccc2n(CCO)c2nc(C3CCC3)n(-c3ccccc3)c(=O)c12` [Example 1.39, 2-cyclobutyl-10-(2-hydroxyethyl)-3-phenylpyrimido[4,5-b]quinoline-4,5(3H,10H)-dione], the Emax worked out at 250% and the AC50 was determined as 3.2 µM. As to `CC(C)c1nc2c(c(=O)c3ccccc3n2C)c(=O)n1-c1ccccc1Br` [Example 1.40, 3-(2-bromophenyl)-2-isopropyl-10-methylpyrimido[4,5-b]quinoline-4,5(3H,10H)-dione], the Emax worked out at 112% and the AC50 was determined as 12.1 µM. For the molecule `CC(C)c1nc2c(c(=O)c3ccccc3n2CCN)c(=O)n1-c1ccccc1` [Example 1.41, 10-(2-aminoethyl)-2-isopropyl-3-phenylpyrimido[4,5-b]quinoline-4,5(3H,10H)-dione], the Emax is 198% and the concentration at half-maximal activity (AC50) turned out to be 19.5 µM. The like results for `CC(C)c1nc2c(c(=O)c3ccccc3n2CCO)c(=O)n1-c1ccccc1` [Example 1.42, 10-(2-hydroxyethyl)-2-isopropyl-3-phenylpyrimido[4,5-b]quinoline-4,5(3H,10H)-dione] were, in that order, 117% and 15.7 µM.
